Paper PMC8464850, “Sulfonium Ligands of the α7 nAChR” (Molecules, 2021)

Tests used:
Assay type in all cases: cell-based
human α7 receptors = biological target: T1, human α7 receptors (Homo sapiens, UniProt P36544); test: Activation of human α7 receptors expressed in Xenopus oocytes, compounds applied alone (two-electrode voltage clamp, net charge); settings: for ability to activate α7 when applied alone: 100 µM
T1 construct: expressed in transfected cells; host or cells: Xenopus laevis oocytes (injected RNA)
T1 sequence (P36544 23-502): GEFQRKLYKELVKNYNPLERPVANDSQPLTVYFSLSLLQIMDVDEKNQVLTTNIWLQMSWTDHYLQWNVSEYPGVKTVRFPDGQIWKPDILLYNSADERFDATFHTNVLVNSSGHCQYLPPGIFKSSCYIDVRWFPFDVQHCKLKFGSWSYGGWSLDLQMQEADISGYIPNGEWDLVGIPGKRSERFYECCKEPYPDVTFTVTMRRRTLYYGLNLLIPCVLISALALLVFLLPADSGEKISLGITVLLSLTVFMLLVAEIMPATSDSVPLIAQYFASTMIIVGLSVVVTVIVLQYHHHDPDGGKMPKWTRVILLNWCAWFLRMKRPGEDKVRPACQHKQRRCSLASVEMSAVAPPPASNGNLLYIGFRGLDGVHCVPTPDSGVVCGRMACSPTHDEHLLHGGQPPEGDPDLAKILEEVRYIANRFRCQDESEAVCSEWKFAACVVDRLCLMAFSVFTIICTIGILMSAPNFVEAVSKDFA
Experimental: The sulfonium compounds (Figure 1) were evaluated for their ability to activate human α7 receptors expressed in Xenopus oocytes (Figure 2A). Responses were measured as net charge. […] The average net-charge response to 100 µM S1 was 47 ± 6% of the control responses to 60 µM ACh from the same cells.
Figure 2 Responses of α7 nAChR to sulfonium compounds. (A) Net-charge responses to the applications of the test compounds applied at 100 µM. Net charge was calculated as the integrated area of inward current over a 120 s interval following the 30 s-pre-application period used to establish an initial baseline. […] (B) Averaged net-charge responses (±SEM, n = 8) to applications of S1 across a range of concentrations. Responses were measured relative to preceding 60 µM ACh control responses and then adjusted for the difference between ACh controls and ACh maximum responses. See text for curve-fit values.
(§1) The human nAChR clones were obtained from Jon Lindstrom (University of Pennsylvania, Philadelphia, PA, USA). Mouse muscle subunit clones were obtained from Jim Boulter (Salk Institute, La Jolla, CA, USA) and Paul Gardner (Dartmouth, Hanover, NH, USA). The human resistance-to-cholinesterase 3 (RIC3) clone was obtained from Millet Treinin (Hebrew University, Jerusalem, Israel) and co-injected with α7 to improve the level and speed of α7 receptor expression without affecting the pharmacological properties of the receptors. Subsequent to linearization and purification of the plasmid DNAs, RNAs were prepared using the mMessage mMachine in vitro RNA transcription kit (Ambion, Austin, TX, USA).
Oocytes were surgically removed from mature female Xenopus laevis frogs (Nasco, Ft. Atkinson, WI, USA) as previously described. Frogs were maintained in the Animal Care Service facility of the University of Florida, and all procedures were approved by the University of Florida Institutional Animal Care and Use Committee (approval number 202002669).
Experiments were conducted using OpusXpress 6000A (Molecular Devices, Union City, CA, USA). Both the voltage and current electrodes were filled with 3 M KCl. Oocytes were voltage-clamped at −60 mV at room temperature (24 °C). The oocytes were bath-perfused with Ringer’s solution (115 mM NaCl, 2.5 mM KCl, 1.8 mM CaCl2, 10 mM HEPES, and 1 μM atropine, pH 7.2) at 2 mL/min for α7 receptors, or 4 mL/min for heteromeric nAChR. To evaluate the effects of experimental compounds, responses were compared to control ACh-evoked responses, defined as the average of two initial applications of ACh made before test applications. ACh control concentrations were 60 µM for α7 receptors; 100 µM for α4(3)β2(2) and α3β4 receptors; 30 µM for α4β2α6β2β3 and muscle-type (αβ1εδ) receptors; and 10 µM for α4(3)β2(2) and α4(2)β2(2)α5 receptors.
Solutions were applied from 96-well plates via disposable tips. Drug applications were 12 s in duration, followed by 181 s washout periods for α7 receptors, or 6 s in duration followed by 301 s washout periods for heteromeric nAChR. The responses were calculated as both peak current amplitudes and net charge, as previously described. Data were collected at 50 Hz, filtered at 20 Hz for α7 receptors or filtered at 5 Hz for heteromeric nAChR, and analyzed by Clampfit (Molecular Devices, San Jose, CA, USA) and Excel (Microsoft, Redmond, WA, USA). Data were expressed as means ± SEM from at least four oocytes for each experiment and plotted with Kaleidagraph 4.5.2 (Abelbeck Software, Reading, PA, USA). Multi-cell averages were calculated for comparisons of complex responses. Averages of the normalized data were calculated for each of the 10,322 points in each of the 206.44 s traces (acquired at 50 Hz), as well as the standard errors for those averages.

α4(3)β2(2) = biological target: T2, α4(3)β2(2) (Homo sapiens, UniProt P17787+P43681); test: Activation of heteromeric nAChR by S1: α4(3)β2(2)
T2 construct: expressed in transfected cells; host or cells: Xenopus laevis oocytes (injected RNA)
T2 sequence (P17787 26-502): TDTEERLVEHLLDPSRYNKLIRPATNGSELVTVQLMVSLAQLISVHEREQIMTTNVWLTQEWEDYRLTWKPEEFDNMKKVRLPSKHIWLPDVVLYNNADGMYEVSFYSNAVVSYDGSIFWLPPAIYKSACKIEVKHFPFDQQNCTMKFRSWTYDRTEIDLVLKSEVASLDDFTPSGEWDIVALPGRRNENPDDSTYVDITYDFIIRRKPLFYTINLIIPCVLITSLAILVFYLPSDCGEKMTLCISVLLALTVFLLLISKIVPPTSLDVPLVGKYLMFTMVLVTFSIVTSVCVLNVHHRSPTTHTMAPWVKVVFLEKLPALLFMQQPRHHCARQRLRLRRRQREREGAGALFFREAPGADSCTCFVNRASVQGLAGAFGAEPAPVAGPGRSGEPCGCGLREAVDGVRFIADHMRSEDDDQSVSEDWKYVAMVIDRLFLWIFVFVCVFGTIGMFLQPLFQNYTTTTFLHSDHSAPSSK
T2 sequence (P43681 29-627 limits assumed): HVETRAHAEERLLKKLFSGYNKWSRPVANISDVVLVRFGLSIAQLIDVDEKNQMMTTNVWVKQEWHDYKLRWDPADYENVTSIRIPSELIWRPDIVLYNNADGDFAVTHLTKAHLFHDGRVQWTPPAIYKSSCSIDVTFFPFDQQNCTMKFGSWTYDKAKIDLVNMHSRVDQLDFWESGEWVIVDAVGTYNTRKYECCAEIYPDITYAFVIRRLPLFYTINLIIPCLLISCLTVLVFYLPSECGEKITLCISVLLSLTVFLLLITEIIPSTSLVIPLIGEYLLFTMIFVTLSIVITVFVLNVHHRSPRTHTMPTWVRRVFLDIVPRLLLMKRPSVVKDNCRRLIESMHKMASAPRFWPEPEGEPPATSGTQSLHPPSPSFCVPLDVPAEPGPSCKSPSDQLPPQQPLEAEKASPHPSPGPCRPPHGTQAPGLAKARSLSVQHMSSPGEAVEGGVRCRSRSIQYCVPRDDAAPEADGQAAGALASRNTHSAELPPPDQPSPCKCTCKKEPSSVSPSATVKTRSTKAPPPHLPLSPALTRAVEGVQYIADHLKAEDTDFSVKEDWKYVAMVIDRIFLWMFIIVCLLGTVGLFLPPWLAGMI
T2 sequence (P43681 29-627 limits assumed): as above
Text: (§2) Concatamers were used in order to obtain heteromeric receptors with known subunit composition. The β2-6-α4 concatamer was co-expressed with monomeric α4, β2, or α5 to obtain receptors with the composition α4(3)β2(2), α4(2)β2(3), or α4(2)β2(2)α5, respectively. A concatamer of five linked subunits was used to obtain the β3α4 β2α6β2 receptors. The α3β4 receptors were formed from the co-expression of α3 and β4 subunit monomers at equal ratios. Note that the data were initially measured relative to internal ACh control responses for each oocyte (Methods). Responses were subsequently adjusted for the relative values of the ACh controls and the ACh maximum responses for each of the various subtypes, determined in previous experiments.
(§3) Figure 6 Activation of heteromeric neuronal nAChR by S1. […] Data are the average peak currents (n = 6–8 oocytes ± SEM), measured relative to initial ACh control responses for each oocyte (concentrations listed in Methods). Responses were subsequently adjusted for the relative values of the ACh controls and the ACh maximum responses for each of the various subtypes, determined in previous experiments. […]
(§4) Solutions were applied from 96-well plates via disposable tips. […] The responses were calculated as both peak current amplitudes and net charge, as previously described. […] Multi-cell averages were calculated for comparisons of complex responses. […]

β3α4 β2α6β2 = biological target: T3, β3α4 β2α6β2 (Homo sapiens, UniProt P17787+P43681+Q15825); test: Activation of heteromeric nAChR by S1: β3α4β2α6β2 concatamer
T3 construct: expressed in transfected cells; host or cells: Xenopus laevis oocytes (injected RNA)
T3 sequence (P43681 29-627 limits assumed): as above
T3 sequence (P17787 26-502): as the sequence (P17787 26-502) above
T3 sequence (Q15825 26-494): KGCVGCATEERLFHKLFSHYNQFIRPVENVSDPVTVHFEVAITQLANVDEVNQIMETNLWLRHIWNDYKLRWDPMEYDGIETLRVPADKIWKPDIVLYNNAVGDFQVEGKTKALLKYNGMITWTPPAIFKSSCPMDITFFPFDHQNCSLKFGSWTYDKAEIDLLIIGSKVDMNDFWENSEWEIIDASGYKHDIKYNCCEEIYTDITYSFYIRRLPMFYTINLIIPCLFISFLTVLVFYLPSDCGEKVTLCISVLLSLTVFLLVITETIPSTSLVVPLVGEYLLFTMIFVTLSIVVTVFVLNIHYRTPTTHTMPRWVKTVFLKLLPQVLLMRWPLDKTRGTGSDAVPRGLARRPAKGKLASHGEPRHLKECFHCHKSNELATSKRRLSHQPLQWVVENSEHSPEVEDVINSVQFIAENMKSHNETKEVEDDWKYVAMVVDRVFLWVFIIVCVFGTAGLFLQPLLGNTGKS
Text: as §2, §3, §4

α4β2α5 = biological target: T4, α4β2α5 (Homo sapiens, UniProt P17787+P43681); test: Activation of heteromeric nAChR by S1: α4(2)β2(2)α5
T4 construct: expressed in transfected cells; host or cells: Xenopus laevis oocytes (injected RNA)
T4 sequence (P17787 26-502): as the sequence (P17787 26-502) above
T4 sequence (P43681 29-627 limits assumed): as the sequence (P43681 29-627 limits assumed) above
Text: as §2, §3, §4

[1] = biological target: T5, muscle-type (α1β1εδ) receptors (Mus musculus, UniProt P02716+P04756+P20782); test: Activation of muscle-type receptors; settings: not shown
T5 construct: expressed in transfected cells; host or cells: Xenopus laevis oocytes (injected RNA)
T5 sequence (P04756 21-457): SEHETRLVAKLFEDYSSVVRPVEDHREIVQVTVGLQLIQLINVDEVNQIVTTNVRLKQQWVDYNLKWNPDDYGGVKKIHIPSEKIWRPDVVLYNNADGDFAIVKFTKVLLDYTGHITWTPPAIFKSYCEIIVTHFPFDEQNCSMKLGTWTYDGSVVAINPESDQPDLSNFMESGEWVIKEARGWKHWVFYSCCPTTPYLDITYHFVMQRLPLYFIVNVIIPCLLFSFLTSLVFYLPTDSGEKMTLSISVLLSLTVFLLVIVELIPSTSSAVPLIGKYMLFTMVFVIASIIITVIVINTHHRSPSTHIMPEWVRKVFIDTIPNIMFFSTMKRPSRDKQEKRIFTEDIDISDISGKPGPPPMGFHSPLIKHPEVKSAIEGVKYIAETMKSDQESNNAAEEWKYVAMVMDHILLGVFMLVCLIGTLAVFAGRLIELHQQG
T5 sequence (P09690 24-501 partner): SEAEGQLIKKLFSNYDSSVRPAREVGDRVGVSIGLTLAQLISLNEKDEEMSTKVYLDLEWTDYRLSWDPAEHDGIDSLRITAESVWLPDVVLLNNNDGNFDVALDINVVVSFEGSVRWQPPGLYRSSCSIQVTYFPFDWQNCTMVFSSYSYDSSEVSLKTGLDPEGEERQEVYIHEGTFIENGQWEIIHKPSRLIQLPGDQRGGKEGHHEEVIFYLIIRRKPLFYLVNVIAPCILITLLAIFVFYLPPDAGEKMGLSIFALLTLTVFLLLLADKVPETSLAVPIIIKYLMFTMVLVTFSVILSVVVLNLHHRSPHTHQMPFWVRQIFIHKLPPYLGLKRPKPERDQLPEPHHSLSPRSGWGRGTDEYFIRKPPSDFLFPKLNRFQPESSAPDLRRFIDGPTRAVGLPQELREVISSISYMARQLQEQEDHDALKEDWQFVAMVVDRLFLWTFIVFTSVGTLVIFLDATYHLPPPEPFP
T5 sequence (P20782 21-493): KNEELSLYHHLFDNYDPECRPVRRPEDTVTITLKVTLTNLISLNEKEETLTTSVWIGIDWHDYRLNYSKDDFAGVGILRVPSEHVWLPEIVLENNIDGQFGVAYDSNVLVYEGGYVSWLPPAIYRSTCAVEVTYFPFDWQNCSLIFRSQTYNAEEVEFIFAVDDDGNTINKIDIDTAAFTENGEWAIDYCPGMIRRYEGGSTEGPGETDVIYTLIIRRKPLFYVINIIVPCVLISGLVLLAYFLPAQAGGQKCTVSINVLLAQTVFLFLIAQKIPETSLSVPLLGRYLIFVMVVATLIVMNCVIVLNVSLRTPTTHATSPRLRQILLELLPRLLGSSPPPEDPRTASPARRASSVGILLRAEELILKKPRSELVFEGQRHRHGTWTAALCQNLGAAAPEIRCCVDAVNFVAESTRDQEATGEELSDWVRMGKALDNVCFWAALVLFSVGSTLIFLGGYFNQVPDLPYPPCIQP
T5 sequence (P02716 25-520): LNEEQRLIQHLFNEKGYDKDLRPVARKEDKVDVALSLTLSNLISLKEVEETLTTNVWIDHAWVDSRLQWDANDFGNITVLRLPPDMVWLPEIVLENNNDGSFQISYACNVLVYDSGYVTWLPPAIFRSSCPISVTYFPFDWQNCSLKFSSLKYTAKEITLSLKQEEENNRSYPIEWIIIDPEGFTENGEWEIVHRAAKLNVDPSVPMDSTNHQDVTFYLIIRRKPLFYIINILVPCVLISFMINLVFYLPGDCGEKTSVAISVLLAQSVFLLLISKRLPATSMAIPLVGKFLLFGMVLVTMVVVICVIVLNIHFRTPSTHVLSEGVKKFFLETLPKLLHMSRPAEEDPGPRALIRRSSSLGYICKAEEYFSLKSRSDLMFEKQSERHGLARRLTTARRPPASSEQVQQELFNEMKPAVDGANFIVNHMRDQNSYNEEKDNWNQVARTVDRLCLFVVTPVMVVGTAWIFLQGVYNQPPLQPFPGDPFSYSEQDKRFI
Text: as §1
Experiments were conducted using OpusXpress 6000A (Molecular Devices, Union City, CA, USA). […]
Solutions were applied from 96-well plates via disposable tips. […] The responses were calculated as both peak current amplitudes and net charge, as previously described. Data were collected at 50 Hz, filtered at 20 Hz for α7 receptors or filtered at 5 Hz for heteromeric nAChR, and analyzed by Clampfit (Molecular Devices, San Jose, CA, USA) and Excel (Microsoft, Redmond, WA, USA). Data were expressed as means ± SEM from at least four oocytes for each experiment and plotted with Kaleidagraph 4.5.2 (Abelbeck Software, Reading, PA, USA). Multi-cell averages were calculated for comparisons of complex responses. […]

[2] = peak currents relative to ACh maximum

C[S+](C)C.[I-] [Compound S1, trimethylsulfonium iodide]
average net-charge response, % of the control responses to 60 µM ACh (human α7 receptors; 100 µM compound applied alone, same cells): 47 ± 6% | ability to activate α7 when applied alone (human α7 receptors; net charge): activated receptors | ability to activate α7 when applied alone (human α7 receptors; net charge, listed as trimethylsulfonium): partial agonist | Imax (human α7 receptors; net charge, n = 8, normalized to ACh maximum, Hill fit): 84 ± 0.3 % ACh Imax | EC50 (human α7 receptors; α7, Hill fit, Table 2, unit printed in text b9 only, read-out: EC50 (S1 Activation)): 98 ± 0.5 µM | IMax (S1 Activation) (human α7 receptors; α7, relative to ACh maximum, Hill fit, Table 2): 0.84 ± 0.01 | IMax (S1 Activation) (α4(3)β2(2); [2]): 1.2 ± 0.2 | EC50 (α4(3)β2(2); peak currents, unit inferred): 246 ± 104 µM | IMax (S1 Activation) (β3α4 β2α6β2; [2]): 0.71 ± 0.35 | EC50 (β3α4 β2α6β2; peak currents, unit inferred): 333 ± 51 µM | IMax (S1 Activation) (α4β2α5; [2]): 0.50 ± 0.03 | EC50 (α4β2α5; peak currents, unit inferred): 114 ± 25 µM | activation of muscle-type receptors [1]: not an effective activator
